According to patent publication US9908890B2, “Selective inhibitors of constitutive androstane receptor” (ST. JUDE CHILDREN'S RESEARCH HOSPITAL, priority 2014, dated 2018):
Several values for one entry are separate records, joined by “and”; a condition that tells them apart may be missing. Equal entries are not always repeated. Where two headings read alike, the source gives them in different places.

Biological target: T1, GST-hCAR-LBD (Homo sapiens, UniProt Q14994)
T1 construct: purchased Life Technologies (Carlsbad, Calif.) or Invitrogen (Carlsbad, Calif.)
T1 sequence (Q14994 109-352 limits assumed): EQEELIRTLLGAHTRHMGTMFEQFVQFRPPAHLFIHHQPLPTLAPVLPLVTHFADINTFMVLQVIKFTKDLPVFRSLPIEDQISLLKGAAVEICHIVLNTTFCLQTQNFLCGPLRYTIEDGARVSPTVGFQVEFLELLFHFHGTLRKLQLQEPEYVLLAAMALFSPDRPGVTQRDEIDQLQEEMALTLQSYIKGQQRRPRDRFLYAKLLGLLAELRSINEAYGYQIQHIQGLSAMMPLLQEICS
Experiment: CoAct binding inverse agonist assay (LanthaScreen TR-FRET, fluorescent PGC-1α coactivator recruitment/repression)
Type: biochemical
Details: for inhibition at 70 µM: 70 μM compound, 42 μM clotrimazole = 100%, DMSO = 0%, read-out: % Inhibition (70 μM); for fold increase of IC50 (decrease of activity) relative to lead chemical 1 (CINPA1) / fold increase of CAR inverse agonistic activity (potency) over lead chemical 1 (CINPA1): relative to chemical 1
Protocol: The effect of putative CAR ligands on the recruitment or repression of PGC-1α binding to hCAR was evaluated by using a LanthaScreen TR-FRET assay according to the manufacturer's instructions. […] The final DMSO concentration was 0.7% in all assay wells. […] The % Inhibition values were then plotted for individual chemicals. When applicable, the graphic software GraphPad Prism 5.04 (GraphPad Software, La Jolla, Calif., USA) was used to fit the data into a one-site competitive-binding equation to derive IC50 values. […] The assay plates were then briefly spun down and incubated for 1 hour at room temperature (25° C.). […] The final DMSO concentration was 0.7% in all assay wells. […] The % Inhibition values were then plotted for individual chemicals. When applicable, the graphic software GraphPad Prism 5.04 (GraphPad Software, La Jolla, Calif., USA) was used to fit the data into a one-site competitive-binding equation to derive IC50 values.

[1] = read-out: IC50 (CAR inverse agonistic activity)
[2] = Table 6, CINPA1 and commercially available analogs, read-out: IC50
[3] = quoted in SAR text in nM, read-out: IC50 (CAR inverse agonistic activity)

| IC50 (Table 4, read-out: IC50) [nM] | Compound | IC50 [1] | inhibition at 70 µM [%] | also measured |
| --- | --- | --- | --- | --- |
|  | CC(C)(C)OC(=O)Nc1ccc2c(c1)N(C(=O)CN1CCCCC1)c1ccccc1CC2 [Compound 38, tert-butyl (5-(2-(piperidin-1-yl)acetyl)-10,11-dihydro-5H-dibenzo[b,f]azepin-3-yl)carbamate] | 220 nM |  |  |
| 24500 | CCNCC(=O)N1c2ccccc2CCc2ccc(NC(=O)OCC)cc21 [Compound 24, ethyl (5-(ethylglycyl)-10,11-dihydro-5H-dibenzo[b,f]azepin-3-yl)carbamate] |  | 88.4 | fold increase of IC50 (decrease of activity) relative to lead chemical 1 (CINPA1): over 35 fold |
|  | CCOC(=O)Nc1ccc2c(c1)N(C(=O)CN(CC)CC)c1ccccc1CC2 [1 (CINPA1)] |  |  | IC50 [2]: 690 nM |
|  | CC(C)OC(=O)Nc1ccc2c(c1)N(C(=O)CCN1CCN(CCO)CC1)c1ccccc1CC2 [compound 88] | > 70000 nM |  | IC50 [2]: > 70000 nM |
| 81 | O=C(Cn1cccc1)N1c2ccccc2CCc2ccc(NC(=O)n3cccc3)cc21 [Compound 46] |  |  |  |
|  | CCCN(CCC)CC(=O)N1c2ccccc2CCc2ccc(NC(=O)OCC)cc21 [Compound 11, ethyl (5-(dipropylglycyl)-10,11-dihydro-5H-dibenzo[b,f]azepin-3-yl)carbamate] | 210 nM | 113 | fold increase of CAR inverse agonistic activity (potency) over lead chemical 1 (CINPA1): 3 fold |
|  | CCOC(=O)Nc1ccc2c(c1)N(C(=O)CN1CCOCC1)c1ccccc1CC2 [compound 80] | 240 nM and 235 nM |  | fold increase of CAR inverse agonistic activity (potency) over lead chemical 1 (CINPA1): about 3 fold |
|  | CCOC(=O)Nc1ccc2c(c1)N(C(=O)COC(C)(C)C)c1ccccc1CC2 [Compound 19, ethyl (5-(2-(tert-butoxy)acetyl)-10,11-dihydro-5H-dibenzo[b,f]azepin-3-yl)carbamate] | 71 nM | 120 | fold increase of CAR inverse agonistic activity (potency) over lead chemical 1 (CINPA1): 9.7 fold |
| 65 | O=C(Nc1ccc2c(c1)N(C(=O)COC1CCCC1)c1ccccc1CC2)OC1CCCCC1 [Compound 51] |  |  |  |
|  | CCOC(=O)Nc1ccc2c(c1)N(C(=O)Cn1ccnc1)c1ccccc1CC2 [Compound 17, ethyl (5-(2-(1H-imidazol-1-yl)acetyl)-10,11-dihydro-5H-dibenzo[b,f]azepin-3-yl)carbamate] | 6890 nM | 101 | fold IC50 relative to chemical 16 (relative to chemical 16): 186 fold |
|  | CCN(CC)CC(=O)N1c2ccccc2CCc2ccc(NC(=O)NC(C)(C)C)cc21 [Compound 7, 1-(tert-butyl)-3-(5-(diethylglycyl)-10,11-dihydro-5H-dibenzo[b,f]azepin-3-yl)urea] | 13000 nM | 101 |  |
| 50 | O=C(Nc1ccc2c(c1)N(C(=O)c1ccco1)c1ccccc1CC2)OC1CCCCC1 [Compound 69] |  |  |  |
|  | CCOC(=O)Nc1ccc2c(c1)N(C(=O)CN1CCCCC1)c1ccccc1CC2 [Compound 18, ethyl (5-(2-(piperidin-1-yl)acetyl)-10,11-dihydro-5H-dibenzo[b,f]azepin-3-yl)carbamate] | 620 nM | 119 |  |
|  | CCOC(=O)Nc1ccc2c(c1)N(C(=O)CN1CCN(C)CC1)c1ccccc1CC2 [compound 81] | 38800 nM |  | fold increase of IC50 (decrease of activity) relative to lead chemical 1 (CINPA1): 56 fold |
| 18 | CC(C)OC(=O)Nc1ccc2c(c1)N(C(=O)n1cccc1)c1ccccc1CC2 [Compound 55] |  |  |  |
|  | CCCC(=O)Nc1ccc2c(c1)N(C(=O)CN(CC)CC)c1ccccc1CC2 [Compound 2, N-(5-(diethylglycyl)-10,11-dihydro-5H-dibenzo[b,f]azepin-3-yl)butyramide] |  | 106 | IC50 [3]: 2320 nM |
| 21 | CC(C)OC(=O)Nc1ccc2c(c1)N(C(=O)Cc1cccs1)c1ccccc1CC2 [Compound 62] |  |  |  |

| Compound | IC50 (Table 4, read-out: IC50) [nM] | IC50 [1] | inhibition at 70 µM [%] | also measured |
| --- | --- | --- | --- | --- |
| CCOC(=O)Nc1ccc2c(c1)N(C(=O)CN1CCCC1)c1ccccc1CC2 [Compound 13, ethyl (5-(2-(pyrrolidin-1-yl)acetyl)-10,11-dihydro-5H-dibenzo[b,f]azepin-3-yl)carbamate] | 1580 | 1580 nM | 115 | IC50 [3]: 1580 nM; fold increase of IC50 (decrease of activity) relative to lead chemical 1 (CINPA1): more than 2 fold |
